Experiments:
[1] = system: Jurkat cells engineered with the E134G, C49Y, or G123D CARD11 gain of function (GOF) mutant; κB-GFP readout of NFκB signaling; assay: NF-κB-GFP reporter in Jurkat cells engineered with CARD11 gain of function mutants (Example 6); assay type: cell-based; settings: C49Y or G123D CARD11, all three mutants, dose dependent from about 100 nM to 5 μM
Method: Jurkat cells were engineered with the E134G, C49Y, or G123D CARD11 gain of function (GOF) mutant. The Jurkat cells included a reporter gene (κB-GFP) that acts as a readout of NFκB signaling.
Jurkat cells bearing GOF E134G, C49Y, or G123D CARD11 had elevated baseline activation of NF-κB-GFP. MALT1 inhibitors (e.g., Compound 1.1 or 2.4) were incubated with the above engineered Jurkat cells.

[2] = molecular target: T1, proteolytic function of MALT1 (cleavage of CYLD) (Homo sapiens, UniProt Q9UDY8); assay: CYLD cleavage in Jurkat cells bearing GOF CARD11 (Example 6); assay type: cell-based; settings: Jurkat cells with GOF E134G, C49Y or G123D CARD11; dose dependent in the range of about 100 nM to 10 μM
T1 construct: endogenous in cells; host or cells: Jurkat cells bearing GOF E134G, C49Y or G123D CARD11
T1 sequence (Q9UDY8 1-824): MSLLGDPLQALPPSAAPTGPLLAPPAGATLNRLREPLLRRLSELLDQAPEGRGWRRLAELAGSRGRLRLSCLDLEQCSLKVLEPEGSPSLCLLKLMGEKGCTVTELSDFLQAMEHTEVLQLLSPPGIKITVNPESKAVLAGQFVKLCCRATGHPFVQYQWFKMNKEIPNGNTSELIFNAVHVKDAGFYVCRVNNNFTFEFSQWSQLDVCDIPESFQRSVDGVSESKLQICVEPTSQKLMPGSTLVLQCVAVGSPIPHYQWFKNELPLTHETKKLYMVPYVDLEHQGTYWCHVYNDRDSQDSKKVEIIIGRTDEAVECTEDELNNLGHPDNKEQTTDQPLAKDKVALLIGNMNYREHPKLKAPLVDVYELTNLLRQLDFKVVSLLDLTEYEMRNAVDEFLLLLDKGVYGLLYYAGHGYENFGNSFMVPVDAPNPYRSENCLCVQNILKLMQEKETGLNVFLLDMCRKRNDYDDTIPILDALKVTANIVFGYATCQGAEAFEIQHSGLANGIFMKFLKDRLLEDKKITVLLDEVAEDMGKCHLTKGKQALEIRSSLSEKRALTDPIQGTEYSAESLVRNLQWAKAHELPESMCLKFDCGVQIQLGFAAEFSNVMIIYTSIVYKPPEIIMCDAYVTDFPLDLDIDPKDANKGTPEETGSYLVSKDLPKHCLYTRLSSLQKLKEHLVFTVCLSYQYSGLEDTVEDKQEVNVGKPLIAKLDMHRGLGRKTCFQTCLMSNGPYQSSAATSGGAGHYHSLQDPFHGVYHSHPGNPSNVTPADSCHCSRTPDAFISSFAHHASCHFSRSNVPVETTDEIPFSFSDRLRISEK
Method: Jurkat cells bearing GOF E134G, C49Y, or G123D CARD11 were also assessed for cleavage of CYLD as a measure of the proteolytic function of MALT1. In the absence of inhibitors, the Jurkat cells with the GOF CARD11 mutants cleaved CYLD.

[3] = system: T cells that lack endogenous CARD11 and bear transfected CARD11 gain-of-function mutations; κB-GFP readout of NFκB signaling; assay: NF-κB-GFP reporter in T cells transfected with CARD11 gain-of-function cDNA (Example 1); assay type: cell-based; settings: T cells with CARD11 GOF variants; baseline and after anti-CD3 or PMA/ionomycin; flow cytometry
Method: MALT1 inhibitors (e.g., Compounds 1.1, 1.26, 1.27, 1.30, 1.33, 2.1, and/or 2.4) are incubated with T cells that lack endogenous CARD11 and bear transiently transfected CARD11 cDNA bearing gain-of-function mutations. An optional variation is co-transfecting 50:50 a copy of the wildtype CARD11 gene with the CARD11 gain of function mutant. The T-cells include a reporter gene (κB-GFP) that acts as a readout of NFκB signaling. The expression of NF-κB-GFP at baseline and after anti-CD3, or PMA/ionomycin stimulation is measured.
T-Cells bearing GOF variants of CARD11 have elevated baseline activation of NF-κB-GFP, and higher still after stimulation, which is assessed by flow cytometry.

patients with BENTA = assay: Clinical trial of MALT1 inhibitors for BENTA (Example 2); assay type: in vivo; settings: oral once daily, 25 mg/day up to 1000 mg/day
Method: MALT1 inhibitors (e.g., Compounds 1.1, 1.26, 1.27, 1.30, 1.33, 2.1, and/or 2.4) are used to treat patients with BENTA. MALT1 inhibitors (e.g., Compounds 1.1, 1.26, 1.27, 1.30, 1.33, 2.1, and/or 2.4) are formulated in an oral dosage form and administered to patients once daily at a starting dose of 25 mg/day. Alternatively, the daily dose is escalated from 25 mg/day to 1000 mg/day.

[4] = system: mTor pathway (e.g., mTORc1 and/or mTORc2) in primary T cells; assay: mTor pathway activation in stimulated primary T cells, pAkt/pS6 staining (Example 3); assay type: cell-based; settings: primary T cells after anti-CD3/anti-CD28 activation
Method: Primary T cells are stimulated to activation and cultured in the presence of IL-2. For stimulation, cells are preincubated with anti-CD3F and anti-CD28 on ice and washed. Cells were stimulated by crosslinking the anti-CD3 antibody with a secondary antibody (e.g., anti-mouse IgG for 10 min) in complete T cell media and then fixed with pre-warmed fixation buffer. Cells are then washed with FACS buffer and permeabilized with permeabilization buffer pre-chilled to −20° C. and incubated for 30 min on ice. Cells are washed and then stained with the following antibodies or appropriate isotype controls anti-pAkt (Ser473) and anti-pS6 (Ser240/244).
MALT1 inhibitors (e.g., Compounds 1.1, 1.26, 1.27, 1.30, 1.33, 2.1, and/or 2.4) are incubated with the primary T cells after activation.

[5] = system: epithelial cells (e.g., HEK293 cells) bearing CARD14 gain-of-function mutations; κB-GFP readout of NFκB signaling; assay: NF-κB-GFP reporter in epithelial cells transfected with CARD14 gain-of-function cDNA (Example 4); assay type: cell-based; settings: epithelial cells with CARD14 GOF variants; flow cytometry
Method: MALT1 inhibitors (e.g., Compounds 1.1, 1.26, 1.27, 1.30, 1.33, 2.1, and/or 2.4) are incubated with epithelial cells (e.g., HEK293 cells) that lack endogenous CARD14 and bear transiently transfected CARD14 cDNA bearing gain-of-function mutations. The epithelial cells include a reporter gene (κB-GFP) that acts as a readout of NFκB signaling. The expression of NF-κB-GFP at baseline and after anti-CD3, or PMA/ionomycin stimulation is measured.
Epithelial cells bearing gain of function variants of CARD14 have elevated baseline activation of NF-κB-GFP, and higher still after stimulation, which is assessed by flow cytometry.

full-length human MALT1 = molecular target: T2, full-length human MALT1 (Homo sapiens, UniProt Q9UDY8); assay: MALT1 cleavage of HOIL1 (Example 5); assay type: biochemical; settings: HOIL1 0.05 μg/μL with MALT1, 2 h at 37° C.; gel electrophoresis/immunoblot
T2 construct: Recombinant full-length human MALT1 protein was expressed and purified; made in house
T2 sequence (Q9UDY8 1-824): T1 sequence (Q9UDY8 1-824)
Method: Recombinant full-length human MALT1 protein was expressed and purified. C-terminal Myc-FLAG-tagged full-length human HOIL1 was obtained from Origene. HOIL1 protein (0.05 μg/μL) is incubated with different concentrations of MALT1 in assay buffer (200 mM Tris-HCl, 0.8 M Na citrate, 0.1 mM EGTA, 0.05% CHAPS, 1 mM DTT, pH 7.4) for 2 h at 37° C. Cleavage of HOIL1 was analyzed by gel electrophoresis using a 4-12% Bis-Tris SDS-polyacrylamide (PAGE) gradient gel (Life Technologies). The presence of a small fragment was confirmed by immunoblotting with an N-terminal antibody (anti-N-terminal HOIL1; HPA024185; Sigma). Total HOIL1 was observed using a C-terminal directed antibody (anti-FLAG, clone M2, Sigma). These assays are performed with both the cleavable HOIL1 and, as a negative control, a non-cleavable HOIL1 (where Lys is substituted for Arg165).

## CO[C@@H](C)c1c(Nc2ccc([C@H](N(C)C(=O)C3CCS(=O)(=O)CC3)C(F)(F)F)cc2)cnc2nc(Cl)nn12 [Compound 1.1, N-[(1S)-1-[4-({2-chloro-7-[(1S)-1-methoxyethyl]-[1,2,4]triazolo[1,5-a]pyrimidin-6-yl}amino)phenyl]-2,2,2-trifluoroethyl]-N-methyl-1,1-dioxo-1λ^6-thiane-4-carboxamide]
[1]
  NF-κB-GFP expression: reduced NF-κB-GFP expression in a dose dependent fashion
[2]
  CYLD cleavage: suppress this CYLD cleavage in a dose dependent manner
[3]
  NF-κB-GFP expression: lowered NF-κB-GFP expression
Patients with BENTA
  BENTA symptoms: amelioration of their BENTA symptoms
  Jun/Fos, NF-κB and/or mTor pathway activation in patients: reduced Jun/Fos, and/or NF-κB and/or a mTor pathway (e.g., mTORc1 and/or mTORc2) activation
[4]
  mTor pathway (mTORc1 and/or mTORc2) activation: suppress mTor pathway (e.g., mTORc1 and/or mTORc2) activation
[5]
  NF-κB-GFP expression: lowered NF-κB-GFP expression
full-length human MALT1
  cleavage of HOIL1: cleavage of HOIL1 is reduced

## CN(C(=O)[C@H]1CC[C@H](C(=O)O)CC1)[C@@H](c1ccc(Nc2cnn(-c3ccccn3)c2C(F)(F)F)cc1)C(F)(F)F [Compound 2.4]
[1]
  NF-κB-GFP expression: reduced NF-κB-GFP expression in a dose dependent fashion
[2]
  CYLD cleavage: suppress this CYLD cleavage in a dose dependent manner
[3]
  NF-κB-GFP expression: lowered NF-κB-GFP expression
Patients with BENTA
  BENTA symptoms: amelioration of their BENTA symptoms
  Jun/Fos, NF-κB and/or mTor pathway activation in patients: reduced Jun/Fos, and/or NF-κB and/or a mTor pathway (e.g., mTORc1 and/or mTORc2) activation
[4]
  mTor pathway (mTORc1 and/or mTORc2) activation: suppress mTor pathway (e.g., mTORc1 and/or mTORc2) activation
[5]
  NF-κB-GFP expression: lowered NF-κB-GFP expression
full-length human MALT1
  cleavage of HOIL1: cleavage of HOIL1 is reduced
